Results taken from ChEMBL document CHEMBL3885861, “Open TG-GATES”.

Organism: Rattus norvegicus
Test: Open TG-GATES - Regimen: Daily Repeat
Format: toxicity, organism-based, Sprague-Dawley
Set-up: regimen Daily Repeat, gender Male, age 6 weeks
Conditions: in vivo, po, 300 mg/kg, route gavage, dose level Middle; for APTT / Bas / Eos / Fbg / Hb / Ht / Lym / MCH / MCHC / MCV / Mono / Neu / PT / Plat / RBC / Ret / WBC: tissue Blood; for KIDNEY_L / KIDNEY_R / KIDNEY_TOTAL: tissue Kidney; for LIVER: tissue Liver; for A/G / ALP / ALT / AST / BUN / CRE / Ca / Cl / DBIL / GLC / IP / K / LDH / Na / PL / RALB / TBIL / TC / TG / TP / gamma-GTP: tissue Plasma

## O=C(N[C@H](CO)[C@H](O)c1ccc([N+](=O)[O-])cc1)C(Cl)Cl [CHLORAMPHENICOL]
72 h, time 3 day
  TERMINAL_BW: 251.2 g
  APTT: 16.2 s
  Bas: 0%
  Eos: 1%
  Fbg: 294.6 mg/dL
  Hb: 13.3 g/dL
  Ht: 40.8%
  Lym: 83.4%
  MCH: 21.2 pg
  MCHC: 32.6%
  MCV: 65.1 fL
  Mono: 3.4%
  Neu: 11.6%
  PT: 14.4 s
  Plat: 128.6 x10_4/uL
  RBC: 627.6 x10_4/ul
  Ret: 4.4%
  WBC: 77.4 x10_2/uL
  KIDNEY_L: 1.1 g
  KIDNEY_R: 1.1 g
  KIDNEY_TOTAL: 2.1 g
  LIVER: 12.1 g
  A/G: 0.9
  ALP: 1601.8 IU/L
  ALT: 49.4 IU/L
  AST: 72.8 IU/L
  BUN: 16.6 mg/dL
  CRE: 0.2 mg/dL
  Ca: 10.9 mg/dL
  Cl: 105.6 meq/L
  DBIL: 0.01 mg/dL
  GLC: 169.2 mg/dL
  IP: 7.6 mg/dL
  K: 4.2 meq/L
  LDH: 84.2 IU/L
  Na: 141.2 meq/L
  PL: 150.4 mg/dL
  RALB: 2.6 g/dL
  TBIL: 0.052 mg/dL
  TC: 88.4 mg/dL
  TG: 66.6 mg/dL
  TP: 5.6 g/dL
  gamma-GTP: 1 IU/L
[…], time 7 day
  TERMINAL_BW: 277.3 g
  APTT: 16.9 s
  Bas: 0%
  Eos: 1%
  Fbg: 324 mg/dL
  Hb: 13.7 g/dL
  Ht: 42.3%
  Lym: 78.2%
  MCH: 20.5 pg
  MCHC: 32.4%
  MCV: 63.3 fL
  Mono: 3.6%
  Neu: 17%
  PT: 14.5 s
  Plat: 120.6 x10_4/uL
  RBC: 668.6 x10_4/ul
  Ret: 4.8%
  WBC: 66.9 x10_2/uL
  KIDNEY_L: 1.2 g
  KIDNEY_R: 1.2 g
  KIDNEY_TOTAL: 2.4 g
  LIVER: 14 g
  A/G: 0.9
  ALP: 1464.2 IU/L
  ALT: 56.8 IU/L
  AST: 72.8 IU/L
  BUN: 15 mg/dL
  CRE: 0.2 mg/dL
  Ca: 11.3 mg/dL
  Cl: 106 meq/L
  DBIL: 0.02 mg/dL
  GLC: 181.2 mg/dL
  IP: 7.9 mg/dL
  K: 4 meq/L
  LDH: 58.4 IU/L
  Na: 144.8 meq/L
  PL: 148.8 mg/dL
  RALB: 2.7 g/dL
  TBIL: 0.054 mg/dL
  TC: 74 mg/dL
  TG: 102.4 mg/dL
  TP: 5.7 g/dL
  gamma-GTP: 1 IU/L
[…], time 14 day
  TERMINAL_BW: 349.1 g
  APTT: 14.9 s
  Bas: 0%
  Eos: 1.4%
  Fbg: 307 mg/dL
  Hb: 14.2 g/dL
  Ht: 43.7%
  Lym: 84.8%
  MCH: 20.5 pg
  MCHC: 32.5%
  MCV: 63.1 fL
  Mono: 2.2%
  Neu: 11.4%
  PT: 14.8 s
  Plat: 123.5 x10_4/uL
  RBC: 692.8 x10_4/ul
  Ret: 4.7%
  WBC: 80 x10_2/uL
  KIDNEY_L: 1.3 g
  KIDNEY_R: 1.3 g
  KIDNEY_TOTAL: 2.6 g
  LIVER: 16.9 g
  A/G: 0.8
  ALP: 1504.6 IU/L
  ALT: 51.8 IU/L
  AST: 75.2 IU/L
  BUN: 17.4 mg/dL
  CRE: 0.2 mg/dL
  Ca: 11.3 mg/dL
  Cl: 105.2 meq/L
  DBIL: 0.024 mg/dL
  GLC: 198.2 mg/dL
  IP: 7.1 mg/dL
  K: 4 meq/L
  LDH: 66.8 IU/L
  Na: 144 meq/L
  PL: 137.6 mg/dL
  RALB: 2.6 g/dL
  TBIL: 0.052 mg/dL
  TC: 63.4 mg/dL
  TG: 93.6 mg/dL
  TP: 5.8 g/dL
  gamma-GTP: 1 IU/L
[…], time 28 day
  TERMINAL_BW: 411.6 g
  APTT: 15.7 s
  Bas: 0%
  Eos: 1.2%
  Fbg: 296.2 mg/dL
  Hb: 15.1 g/dL
  Ht: 44.3%
  Lym: 86.8%
  MCH: 19.7 pg
  MCHC: 34.1%
  MCV: 57.8 fL
  Mono: 1%
  Neu: 10%
  PT: 14.7 s
  Plat: 110.4 x10_4/uL
  RBC: 768.8 x10_4/ul
  Ret: 2.1%
  WBC: 69.9 x10_2/uL
  KIDNEY_L: 1.6 g
  KIDNEY_R: 1.5 g
  KIDNEY_TOTAL: 3.1 g
  LIVER: 18.5 g
  A/G: 0.8
  ALP: 1176.8 IU/L
  ALT: 43 IU/L
  AST: 63.8 IU/L
  BUN: 15 mg/dL
  CRE: 0.2 mg/dL
  Ca: 10.8 mg/dL
  Cl: 105 meq/L
  DBIL: 0.024 mg/dL
  GLC: 172.8 mg/dL
  IP: 6.5 mg/dL
  K: 3.5 meq/L
  LDH: 49.2 IU/L
  Na: 144.6 meq/L
  PL: 141 mg/dL
  RALB: 2.8 g/dL
  TBIL: 0.064 mg/dL
  TC: 68 mg/dL
  TG: 69.4 mg/dL
  TP: 6.1 g/dL
  gamma-GTP: 1.2 IU/L
